In data set [1] the test system is RG2, clone N32 glioblastoma in the right brain hemisphere. The experiment in a line: Intracranial pressure in rats with implanted RG2-N32 glioblastoma after nasal peptide. The data set is classed as in vivo, Fisher 344 rats. An excerpt: (§1) Adult male Fisher 344 rats were purchased from Charles River, Germany. The body weight at the time for the experiments was 230-250 g. The animals had water and pelleted feed ad libitum. Permission to the experiments was granted by the Regional Animal Experiments Ethical Committee, and national and EU rules were followed.
Cultured cells of the established glioma cell line RG2, clone N32, were stereotactically deposited in the right striatum of the brain of adult Fisher 344 rats (A. T. Aas, A Brun, C. Blennow, S. Strömblad and L. G. Salford (1995). The RG2 glioma model. J. Neuro-Oncology 23, 175-183; R. F. Barth and B. Kauer ([…]). Rat brain tumor models in experimental neuro-oncology: the C6, 9L, T9, RG2, F98, BT4C, RT-2 and CNS-1 gliomas. (J Neuro-Oncology 94, 299-312). After 18-22 days, a tumor, fulfilling established criteria for glioblastoma, was demonstrable in the right hemisphere, invading adjacent brain parenchyma (FIGS. 1, 2). […] FIG. 4 is showing the implantation of pressure sensors (Samba 3200; Samba Sensors A B, V. Frölunda, Sweden), one in each hemisphere. The intracranial pressure was measured to be in the range of 25-50 mm Hg (FIG. 4), that means strikingly elevated as compared to normally 5.3±2.1 mm Hg (H.-A. Hansson, M. Al-Olama, E. Jennische, K. Gatzinsky and S. Lange (2012). The peptide AF-16 and the AF protein counteract intracranial hypertension. Acta Neurochir. Suppl. 114, 377-382). Eventually, the intracranial pressure exceed 50-60 mm Hg, resulting in herniation of the brain, dislocations and impaired blood circulation, and death (FIG. 5).
The intracranial pressure was raised both in the tumor affected right side and in the contralateral left side, and the pressure dropped to the same extent in either brain hemisphere. Concomitantly, any demonstrable neurological impairment resolved.
Cultured cells of the established glioma cell line RG2, clone N32, were stereotactically deposited in the right striatum of the brain of adult Fisher 344 rats as described in
After 18-22 days a tumor, fulfilling established criteria for glioblastoma, was demonstrable in the right hemisphere, invading adjacent brain parenchyma.
A single dose of the peptide AF-6 (1-2 mg/kg body weight, dissolved in water) was instilled in the nose of a Fisher rat with an experimental glioblastoma tumor of the RG2-N32 origin at day 21 after implantation. About 15 min later the intracranial pressure started to dropped from 25-27 mm Hg to 17.7 mm Hg (FIG. 7).

Data set [2] deals with GL261 glioma tumor in the right brain hemisphere. The experiment in a line: Intracranial / interstitial fluid pressure in mice with GL261 glioma after nasal peptide. The data set is classed as in vivo, C57/BI/6 mice. An excerpt:
Adult C57/BI/6 mice were purchased from B & K, Sollentuna, Sweden. The body weight was 23 g and the animals had water and pelleted feed ad libitum. Permission to the experiments was granted by the Regional Animal Experiments Ethical Committee, and national and EU rules were followed.
The GL261 mouse glioma cell line was of C57/BI/6 origin and cultured in the Rausing laboratory, BMC, Lund University, according to an established protocol (K. Enell Smith, S. Fritzell, W. Badn, S. Eberstål, S. Janelidze, E. Visse, A. Darabi and P. Siesjö (2008). Cure of established GL261 mouse gliomas after combined immunotherapy with GM-CSF and IFNγ is mediated by both CD8^+ and CD4^+ T-cells. Int. J. Cancer 124, 630-637).
C57/BI/6 mice had each 5.000 GL261 glioma cells in 5 μL tissue culture medium stereo tactically deposited in deep brain structure in the right brain hemisphere. An expanding tumor was formed and had 22 days later a diameter of 3-5 mm.
The six AA peptide AF-6 (SEQ ID NO:2) (manufactured by solid phase synthesis by K J Ross-Petersen ApS, Copenhagen, with >95% purity and TFA as counter ion) was selected to be investigated for its ability to reduce the increased intracranial pressure (ICP) inevitably evolving at this stage of tumor development.
A mouse with a GL261 tumor in the right brain hemisphere was anaesthetized with isofluran and positioned in a stereotactic holder. […]

Data set [3] has as its system RG2, clone N32 glioblastoma tumor cell nuclei. Kind of data set: Uptake of tracer doxorubicin into glioblastoma cell nuclei of rats (fluorescence microscopy). The data set is classed as in vivo, Fisher 344 rats.
Text: The aim of this experiment was to investigate if treatment with AF-16 increased the penetration of a marker through the tumor cells membrane and subsequent entrance and distribution in their nuclei. Doxorubicin was selected as a tracer for the reason that it is an established cytotoxic drug with a molecular mass of 543.52 g/mol, i.e. being considered as a fairly low molecular mass substance. Further, doxorubicin has a red color and when exposed to light emits a red fluorescence. Doxorubicin is strongly intercalating with the DNA in cell nuclei. This means that if a red fluorescence is observed in a cell nucleus the marker has been reached its target, the tumor cells. It is known that glioblastoma cells, in humans as in animals, prevent the entrance of chemotherapeutic substances into the tumor cells, and consequently no beneficial effects are attained. The most important barrier to the drug is prevailing at the surface of the tumor cells.
as §1
Cultured cells of the established glioma cell line RG2, clone N32, were stereotactically deposited in the right striatum of the brain of adult Fisher 344 rats as described in Example 1. After 20 days a tumor, fulfilling established criteria for being a glioblastoma, was present in the right brain hemisphere of either rat.
AF-16, 1 mg per kg body weight, dissolved in water and administrated as a single dose in a volume of 10 μL, was instilled in the nostrils of anaesthetized Fisher rats. […] Cryostat microtome sections were prepared of the brains, and examined with the aid of fluorescence microscope.
That means that very few doxorubicin molecules entered the tumor cells.

The subject of data set [4] is experimentally induced glioblastoma tumor cell nuclei. Kind of data set: Uptake and binding of doxorubicin to tumor cell nuclei in mice with experimentally induced glioblastoma. The data set is classed as in vivo. The conditions noted are these: additional experiments.
The mark [5] stands for this setting: AF-16 1 mg per kg body weight nasally, 1 h before i.v. doxorubicin 10 mg per kg, sacrificed 30 min later.
Setting [6] is: AF-16 4 mg/kg bw nasally 1 h prior to i.v. doxorubicin 10 mg/kg bw, brains removed 30 min later.
Where [7] appears, read: single nasal instillation 1-4 mg/kg body weight.

Where a SMILES comes first, the peptide text is derived from it. Bounds are passed on as bounds.

For `C[C@@H](O)[C@H](NC(=O)[C@H](CCCCN)NC(=O)[C@H](CO)NC(=O)[C@H](Cc1c[nH]cn1)NC(=O)[C@@H](N)CS)C(=O)N[C@@H](CCCNC(=N)N)C(=O)O` [AF-6, CHSKTR] (H-CHSKTR-OH), the values for the side effects result in data set [1] (single nasal dose 1-2 mg/kg body weight) and in data set [2] (nasal 5 mg per kg body weight) were “No side effects could be disclosed” and “No side effects were noticed”, respectively.
With “VCHSKTRSNPENNVGL (Variant (2)..(2) C may be replaced by S; Variant (3)..(3) H may be replaced by R or K; Variant (4)..(4) S may be replaced by L; Variant (6)..(6) T may be replaced by A) [AF-16, a peptide composed of the amino acids …, fragment of antisecretory factor protein]”, in data set [3] (setting [5]), the “doxorubicin staining of the tumor cell nuclei” value is on record as “strong red staining” and the “proportion of tumor cells labeled by doxorubicin” value is listed as “a large proportion of these cells were labeled”. Moreover, in data set [3] (setting [6]), the “frequency of doxorubicin-stained tumor cell nuclei vs vehicle pretreatment” value is listed as “increased” and the “intensity of doxorubicin staining of tumor cell nuclei vs vehicle pretreatment” value is “increased”. The “effect on uptake of doxorubicin by tumor cell nuclei (summary statement)” value in data set [3] (animals with experimentally induced glioblastoma) was “efficiently improved the uptake”. In addition, the “effect on uptake and binding of doxorubicin to tumor cell nuclei” value in data set [4] was “facilitated the uptake and binding of doxorubicin to tumor cell nuclei”. Moreover, the “effect on raised intracranial pressure (summary statement)” value in data set [1] (animals with experimentally induced glioblastoma, tumor and contralateral hemisphere) was “lower the raised intracranial pressure”. The “start of intracranial pressure decrease after nasal administration” value in data set [1] (nasal AF-16 4 mg/kg bw) is recorded as “about 12 minutes”. Further, the intracranial pressure attained in data set [1] (nasal AF-16 4 mg/kg bw, in half an hour, either brain hemisphere) is approximately 20 mm Hg. In addition, in data set [1] (setting [7]), the “duration of the beneficial effects on intracranial pressure” value is 4 to 6 h and the “time to reduction of the high intracranial pressure” value was 15 to 30 min. For the same compound, in data set [1] (single nasal instillation 1-4 mg/kg body weight in 10 μL water, baseline 25-50 mm Hg, both hemispheres), the “intracranial pressure after reduction (acceptable level)” value is recorded as not above 20 mm Hg. For the same compound, the demonstrable neurological impairment entry in data set [1] (single nasal instillation 1-4 mg/kg body weight, concomitant with pressure drop) is on record as “resolved”. Besides, the “effect on raised intracranial pressure (statement in words)” value in data set [2] (mice with experimentally induced glioblastoma) was “reduced the high intracranial pressure”.

The values above are taken from patent US20190192622A1, “Use of Antisecretory Factor (AF) in Glioblastoma Treatment” (LANTMÄNNEN AS-FAKTOR AB, priority 2012, published 2019).
